Assay results: patent US20250129095A1, “ANNULATED 2-AMINO-3-CYANO THIOPHENES AND DERIVATIVES FOR THE TREATMENT OF CANCER” (Boehringer Ingelheim Int'l GmbH Corp., priority 2021, published 2025)
Where two headings read alike, the source gives them in different places.

Tests used:
KRAS G12D Ba/F3 = KRAS G12D Ba/F3 (Homo sapiens, UniProt P01116, G12D, cells depend on it); assay: Ba/F3 proliferation assay, KRAS G12D; assay type: cell-based; settings: 72 h, AlamarBlue, read-out: KRAS G12D Ba/F3 IC50
Method: (§1) Plasmids containing KRASG12 mutants(i.e. G12D, G12C, G12V) are obtained from GeneScript. To generate KRASG12-dependent Ba/F3 models, Ba/F3 cells are transduced with retroviruses containing vectors that harbor KRASG12 isoforms. Platinum-E cells (Cell Biolabs) are used for retrovirus packaging. Retrovirus is added to Ba/F3 cells. To ensure infection, 4 μg/mL polybrene is added and cells are spinfected. […] Cells with an infection efficiency of 10% to 20% are further cultivated and puromycin selection with 1 μg/mL is initiated. As a control, parental Ba/F3 cells are used to show selection status. Selection is considered successful when parental Ba/F3 cells cultures died. To evaluate the transforming potential of KRASG12 mutations, the growth medium is no longer supplemented with IL-3. Ba/F3 cells harboring the empty vector are used as a control. Approximately ten days before conducting the experiments, puromycin is left out.
(§2) Compounds are added using an Access Labcyte Workstation with a Labcyte Echo 550 or 555 accoustic dispenser. All treatments are performed in technical duplicates. […] AlamarBlue™ (ThermoFisher), a viability stain, is added and fluorescence measured in the PerkinElmer Envision HTS Multilabel Reader. The raw data are imported into and analyzed with the Boehringer Ingelheim proprietary software MegaLab (curve fitting based on the program PRISM, GraphPad Inc.).

KRAS G12C Ba/F3 = KRAS G12C Ba/F3 (Homo sapiens, UniProt P01116, G12C, cells depend on it); assay: Ba/F3 proliferation assay, KRAS G12C; assay type: cell-based; settings: 72 h, AlamarBlue, read-out: KRAS G12C Ba/F3 IC50
KRAS G12C Ba/F3, sequence (P01116 whole entry G12C): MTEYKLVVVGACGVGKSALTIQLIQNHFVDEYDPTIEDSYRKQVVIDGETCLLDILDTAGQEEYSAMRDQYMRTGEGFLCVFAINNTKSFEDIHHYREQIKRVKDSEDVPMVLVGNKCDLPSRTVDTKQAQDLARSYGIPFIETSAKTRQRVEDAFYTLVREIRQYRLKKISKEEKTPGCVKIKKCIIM
Method: as §1, §2

NCI-H2122 cells = assay: NCI-H2122 CTG proliferation assay (120 h) (NSCLC, G12C); assay type: cell-based; settings: Homo sapiens
Method: The CTG assay is designed to measure quantitatively the proliferation of NCI-H2122 cells (ATCC CRL-5985), using the CellTiter Glow Assay Kit (Promega G7571). Cells are grown in RPMI medium (ATCC) supplemented with Fetal Calf Serum (Life Technologies, Gibco BRL, Cat. No. 10270-106). On “day 0” 200 NCI-H2122 cells are seeded in 60 μL RPMI ATCC+10% FCS+Penstrep in a black 384-well plate, flat and clear bottom (Greiner, PNr. 781091). Cells are then incubated in the plates at 37° C. in a CO2 incubator overnight. On day 1, compounds (10 mM stock in DMSO) are added with the ECHO acoustic liquid handler system (Beckman Coulter), including DMSO controls. Plates are incubated for 120 h, and cell viability is measured using CellTiter-Glo luminescent cell viability reagent (Promega product code G7570). Viability (stated as percent of control) is defined as relative luminescence units RLU of each well divided by the RLU of cells in DMSO controls. […] values are determined from viability measurements by non-linear regression using a four parameter model. • AsPC-1 CTG proliieradon assay (120 h) (pancreatic cancer, G12D)

AsPC-1 cells = assay: AsPC-1 CTG proliferation assay (120 h) (pancreatic cancer, G12D); assay type: cell-based; settings: Homo sapiens, ASPC1
Method: The CTG assay is designed to measure quantitatively the proliferation of AsPC-1 cells (ATCC CRL-5985), using the CellTiter Glow Assay Kit (Promega G7571). Cells are grown in RPMI medium (ATCC) supplemented with Fetal Calf Serum (Life Technologies, Gibco BRL, Cat. No. 10270-106). On “day 0” 2000 AsPC-1 cells are seeded in 60 μL RPMI ATCC+10% FCS+ Penstrep in a 384-well plate, flat and clear bottom (Greiner, PNr. 781091). Cells are then incubated in the plates at 37° C. in a CO2 incubator overnight. On day 1, compounds (10 mM stock in DMSO) are added with the ECHO acoustic liquid handler system (Beckman Coulter), including DMSO controls. Plates are incubated for 120 h, and cell viability is measured using CellTiter-Glo luminescent cell viability reagent (Promega product code G7570). Viability (stated as percent of control) is defined as relative luminescence units RLU of each well divided by the RLU of cells in DMSO controls.

SK-CO-1 cells = assay: SK-CO-1 CTG proliferation assay (120 h) (CRC, G12V); assay type: cell-based; settings: Homo sapiens
Method: SK-CO-1 cells (ATCC HTB-39) are dispensed into 384-well plates, flat and clear bottom (Greiner, PNr. 781091) at a density of 500 cells per well in 60 μL EMEM (Sigma M5650)+10% Fetal Calf Serum (HyClone, PNr.: SH30084.03) and incubated at 37° C. in a CO2 incubator overnight. The next day, compounds (10 mM stock in DMSO) are added with the ECHO acoustic liquid handler system (Beckman Coulter), including DMSO controls. Plates are incubated for 120 h, and cell viability is measured using CellTiter-Glo luminescent cell viability reagent (Promega product code G7570). Viability (stated as percent of control) is defined as relative luminescence units RLU of each well divided by the RLU of cells in DMSO controls.

[1] = Plasma protein binding assay (PPB), equilibrium dialysis; assay type: in vitro ADME; settings: bovine, 10% FCS in PBS, read-out: PPB 10% FCS (% fu)
Method: Binding of test compounds to plasma was determined using equilibrium dialysis (ED) and quantitative mass spectrometry interfaced with liquid chromatography (LC-MS). In brief, ED was performed with dialysis devices consisting of two chambers separated by a semipermeable membrane with a molecular weight cut-off of 5-10 kg/mol. One chamber was filled with 10% FCS in PBS containing 1-10 μmol/L test compound and the other chamber was filled with phosphate-buffer saline (PBS) with or without dextran. The dialysis chamber was incubated for 3-5 hours at 37° C. After incubation, protein was precipitated from aliquots of each chamber and the concentration of test compound in the supernatant of the plasma-containing compartment (cserum) and of the buffer-containing compartment (cbuffer) was determined by LC-MS. The fraction of unbound test compound (not bound to plasma) (fu) was calculated according to the following equation: […]

[2] = Solubility measurement (DMSO solution precipitation method); assay type: physicochemical; settings: aqueous buffer, kinetic from dmso stock
Method: The DMSO solution is diluted with an aqueous medium (McIlvaine buffer with pH=4.5 or 6.8) to a final concentration of 250 μM. After 24 h of shaking at ambient temperature a potentially formed precipitate is removed by filtration. The concentration of the test compound in the filtrate is determined by LC-UV methods by calibrating the signal to the signal of a reference solution with complete dissolution of the test compound in acetonitrile/water (1:1) with known concentration.

[3] = McIlvaine buffer pH 4.5, 24 h, read-out: Solubility [μg/ml] pH 4.5
[4] = McIlvaine buffer pH 6.8, 24 h, read-out: Solubility [μg/ml] pH 6.8

KRAS G12D Ba/F3, sequence (P01116 whole entry G12D, canonical isoform): as the sequence (P01116 whole entry G12C) above, with C12D counted along it

Row | Structure (SMILES) | GI50 (KRAS G12D Ba/F3) [µM] | GI50 (KRAS G12C Ba/F3) [µM] | IC50 (NCI-H2122 cells) [µM] | IC50 (AsPC-1 cells) [µM] | IC50 (SK-CO-1 cells) [µM] | fraction unbound [1] | solubility at 24 h [2, 3] [µg/mL] | solubility at 24 h [2, 4] [µg/mL]
1 | CO[C@@H]1C[C@@H]([C@H](C)Oc2cc(O[C@@H]3CNC3(C)C)nc(-c3noc4c3CCC[C@@]43CCCc4sc(N)c(C#N)c43)n2)N(C)C1 [II-30] | 0.005 | 0.219 | 1.23 | 0.036 | 0.26 | 0.3 | > 171 | > 165
2 | C[C@H](Oc1cc(O[C@@H]2CNC2(C)C)nc(-c2noc3c2CCC[C@@]32CCCc3sc(N)c(C#N)c32)n1)[C@@H]1C[C@@H](F)CN1C [II-31] | 0.003 | 0.203 | 1.21 | 0.025 | 0.394 | 0.31 | > 157 | > 143
